Values quoted from earlier work as cited in patent US8853454B2, “Quaternary ammonium salts as microbe inhibitors” (Mionix Corporation, priority 2006, dated 2014).

Conditions: in vivo

SMILES: OCCCl [2-chloroethanol]
- oral lethal dose: 50 to 500 mg/kg
